The source of these data is US20260365662A1, “ISOANDROGRAPHOLIDE ANALOGS AND METHOD FOR TREATMENT USING THE SAME” (Enveda Therapeutics, Inc., priority 2023, published 2026).

As usually defined, the IC50 is the concentration that gives 50% inhibition. Lower therefore signals greater potency in that assay.

Experiment [1] concerns mice. In words: Bleomycin-induced pulmonary fibrosis model, prophylactic and treatment groups (Example 3). Format: in vivo, mouse. On the procedure: Prophylactic group (P): At Day 0, prophylactic treatment of mice (P) with Compound 1 or pirfenidone by PO was performed. From Day 0 to Day 20, the prophylactically treated mice (P) were intratracheally instilled with bleomycin. At Day 21, the mice (P) were euthanized.
Treatment group (T): Likewise, from Day 0 to Day 7, naïve mice (T) were intratracheally instilled with bleomycin. At Day 7, the naïve mice were treated with Compound 1. Bleomycin instillation continued to Day 20. At Day 21, the mice (T) were euthanized.
FIGS. 2A-2D and FIGS. 3A-3G illustrate the therapeutic effects of Compound 1 at 10 mpk (P), 30 mpk (P), 100 mpk (P), and 100 mpk (T), as compared to a normal control, treatment-free control (bleomycin), and pirfenidone (comparative) at 100 mpk (P) in a bleomycin-induced model of pulmonary fibrosis.

Experiment [2] relates to mice. The experiment is described as follows: DSS mouse model of colitis. As to conditions: 30 mpk, 2% DSS, Day 8. Format: in vivo. The procedure:
From Day-3 to Day 8, mice were treated with Compound 1, fingolimod, or mesalamine. From Day-3 to Day 0, mice were randomized and acclimated to their environment while assessing a disease activity index (DAI). At Day 1, 2% w/w of DSS in water was administered to the mice by PO. From Day 1 to Day 7, DAI continued to be assessed. At Day 8, the mice were euthanized post the final dose of Compound 1, fingolimod, or mesalamine.
FIGS. 8A-8D present the efficacy of Compound 1 at 30 mpk as compared to vehicle control, DSS control, fingolimod at 1 mpk (comparative), and mesalamine at 50 mpk (comparative) in a DSS mouse model of colitis. The graphs show the effect of Compound 1 on disease activity index, stool consistency, rectal bleeding index, and combined histopathology.

The subject of experiment [3] is mice. The experiment is described as follows: Chlorhexidine gluconate-induced peritoneal fibrosis model. Format: in vivo, mouse. The settings on record: 10, 30, 100 mpk, 0.1% CG, Day 22. On the procedure:
From Day 1 to Day 21, 0.1% w/w of chlorhexidine gluconate (CG) in water was administered, every other day, to the mice by PO to induce peritoneal fibrosis. From Day 1 to Day 21, mice were treated with Compound 1 or an inhibitor of TGFβ receptor I (ALK5) (SB525334). At Day 22, the mice were euthanized.
FIGS. 9A and 9B illustrate the effect of Compound 1 at 10, mpk, 30, mpk, and 100 mpk as compared to sham control, 0.1% chlorhexidine gluconate (CG) and vehicle, and an inhibitor of TGFβ receptor I (ALK5) (SB525334) at 30 mpk (comparative), and mesalamine at 50 mpk (comparative) on average peritoneal thickness and α-SMA expression in a mouse model of peritoneal fibrosis.

In experiment [4] the test system is mice. The experiment is described as follows: Imiquimod (IMQ) psoriasis mouse model. As to conditions: 30 mpk P.O., BID, 5% imiquimod, Day 0 to Day 7. It is filed as in vivo. The procedure: From Day 0 to Day 7, 5% w/w of imiquimod (IMQ) in water was administered to the mice by PO to induce psoriasis. From Day 0 to Day 7, mice were treated with Compound 1, clobetasol, or dexamethasone. At Day 7, the mice were euthanized.
FIGS. 10A and 10B illustrate the effect of Compound 1 at 30 mpk (P.O., BID) as compared to naive control, vehicle control, 0.05% clobetasol, and dexamethasone at 1 mpk (P.O., QD) on psoriasis in a mouse model. The graphs show the changes in ear thickness and Psoriasis Area and Severity Index (PASI) score over time.

For experiment [5], the system named is mice. The experiment is described as follows: MC903-induced atopic dermatitis mouse model (Example 11). It is filed as in vivo. As to conditions: 3, 10, 30 mpk PO, BID, MC903, Day 14. On the procedure:
From Day 1 to Day 14, 2 nmol in 100% ethanol, 50 μl/mouse/back skin (MC903) was administered every other day to mice to induce atopic dermatitis. From Day 1 to Day 14, mice were treated with Compound 1 or clobetasol. At Day 14, the mice were euthanized.
FIGS. 11A-11C illustrate the effects of Compound 1 at 3 mpk, 10 mpk, and 30 mpk (PO, BID) as compared to normal control, vehicle control, and 0.05% clobetasol (topical, QD) (comparative) on atopic dermatitis in a mouse model.

For experiment [6], the system named is human neutrophils. The experiment is described as follows: IL-8 induced neutrophil chemotaxis. The settings on record: for IC50: IL-8 (2 nM). It is filed as cell-based. The procedure:
(§1) Freshly isolated healthy human neutrophils were isolated and utilized. The neutrophils were treated with IL-8 at 2 nM or fMLP at 100 nM to induced chemotaxis.
(§2) FIGS. 7A and 7B display the percentage of inhibition of 2 nm of IL-8 induced chemotaxis at different compound concentrations of Compound 3 as compared to Navarixin (comparative). FIGS. 7C and 7D display the percentage of inhibition of 100 nm fMLP induced chemotaxis at different compound concentrations of Compound 3 as compared to HCH6-1 (comparative). Table 3 below provides the IC50 values for each stimulus, providing a comparative measure of the compounds' efficacy.

Experiment [7] deals with human neutrophils. In words: fMLP induced neutrophil chemotaxis. Format: cell-based. The settings on record: for IC50: fMLP (100 nM), Donor 1. The procedure:
as §1, §2

The test system of experiment [8] is mice. The experiment is described as follows: Bleomycin-induced pulmonary fibrosis model, prophylactic, 21 days (Example 2). As to conditions: PO, Day 21. It is filed as in vivo, mouse. On the procedure:
At Day 0, prophylactic treatment of mice with Compound 3 or pirfenidone by PO was performed. From Day 0 to Day 20, the prophylactically treated mice were intratracheally instilled with bleomycin. At Day 21, the mice were euthanized.
As depicted in FIGS. 1A-1F, a series of bar graphs illustrate the reduction in fibrotic symptoms in a bleomycin-induced pulmonary fibrosis model upon treatment with Compound 3 at 1 mpk, 3 mpk, 10 mpk, and 100 mpk as compared to a normal control, treatment-free control (bleomycin), and pirfenidone (comparative) at 100 mpk. Parameters such as collagen deposition, collagen accumulation, collagen fiber formation, inflammatory cytokine expression, and inflammatory cell infiltration were measured.

In experiment [9] the test system is mice. The experiment is described as follows: LPS-induced acute lung injury model (Example 4). Format: in vivo, mouse. As to conditions: 30 mpk PO, aerosolized LPS 1 mg/mL, 4 hours. On the procedure: At time point −1 hour, prophylactic treatment of mice by PO with Compound 3 or dexamethasone was performed. From time point −0.5 hours to 0 hours, neutrophil activation was induced with aerosolized LPS at 1 mg/mL. At timepoint 4 hours, blood, BALF, and lung tissue were harvested.
FIGS. 4A-4G present the effects of Compound 3 at 30 mpk as compared to naive control, treatment-free control (LPS), and dexamethasone (comparative) at 5 mpk on inflammatory cytokines in a lipopolysaccharide (LPS)-induced acute lung injury model. The bar graphs compare the levels of TNF-α, IL-6, IL-36γ, Total cell count (BALF), neutrophils (BALF), neutrophils (blood), and eosinophils (BALF), MIP-2.

The test system of experiment [10] is mice. In words: Bleomycin-induced inflammation and cell counts, 10 days (Example 5). It is filed as in vivo, mouse. As to conditions: 3, 10, 30 mpk PO, Day 10. On the procedure: At Day 0, prophylactic treatment of mice with Compound 3 or pirfenidone by PO was performed. From Day 0 to Day 9, the prophylactically treated mice were intratracheally instilled with bleomycin. At Day 10, the mice were euthanized.
As shown in FIGS. 5A-5G, the impact of Compound 3 at 3 mpk, 10 mpk, and 30 mpk as compared to normal control, treatment-free control (bleomycin), and pirfenidone (comparative) at 100 mpk on various cell counts associated with inflammation was evaluated. The bar graphs compare alveolar macrophage counts, neutrophil counts, lymphocyte counts, inflammation score, eotaxin (BALF), INFγ (lung), and IL-6 (lung).

For experiment [11], the system named is human precision-cut lung slices. In words: Inflammation and fibrosis biomarkers in human precision-cut lung slices. It is filed as cell-based. As to conditions: 5 μM and 50 uM, hPCLS. The procedure: Cryopreserved human precision-cut lung slices (hPCLS) were prepared and used to analyze biomarkers in inflammatory and fibrotic models. Information of the donors that provided the hPCLS is provided below.
FIGS. 6A-6D illustrate the dose-dependent impact of Compound 3 at 5 μM and 50 uM as compared to vehicle control, nintedanib at 2.5 μM (comparative), and pirfenidone at 2.5 uM (comparative) on biomarkers associated with inflammation and fibrosis in human pulmonary cells.

Where [12] appears, read: 10, 30, 100 mpk (P) and 100 mpk (T), bleomycin.

Non-standard residues stand in square brackets, D forms with d. Residues, ends and D or L forms follow the SMILES beside them. *: point of attachment. Bz = O=C(c1ccccc1)*

As to `C[C@@]1(C#N)[C@H](O)CC[C@]2(C)[C@@H]1CC[C@@]1(C)O[C@H](C3=CCOC3=O)C[C@@H]21` [Compound 1, (2S,3aR,5aS,6R,7R,9aR,9bS)-7-hydroxy-3a,6,9a-trimethyl-2-(2-oxo-2,5-dihydrofuran-3-yl) dodecahydronaphtho[2,1-b]furan-6-carbonitrile], in the experiment with mice [1] (setting [12]), the Ashcroft score result is recorded as “lower the Ashcroft score”, the hydroxyproline content entry is given as “reduce hydroxyproline content” and the “inflammatory cell infiltration in lung tissue” value is recorded as “decrease inflammatory cell infiltration”. In the experiment with mice [1] (H&E staining, 100× magnification, compared to control), the “fibrosis and lung tissue morphology (histology)” value was “reduced fibrosis and improved lung tissue morphology”. Moreover, the “symptoms of colitis, such as weight loss and increased disease severity” value with mice [2] is “effectively mitigate the symptoms of colitis”. In addition, in the experiment on mice [3], the average peritoneal thickness result was “reduction” and the α-SMA expression entry was “reduction”. In addition, in the experiment with mice [4], the skin condition entry was “improvements in skin condition” and the “symptoms (ear thickness, PASI score)” value is “reduction in symptoms”. Besides, in the experiment with mice [5], the dermatitis severity result is “decrease in dermatitis severity” and the skin thickness result was “decrease”.
As for `C[C@@]12CCC(=O)N[C@@](C)(C#N)[C@H]1CC[C@@]1(C)O[C@H](C3=CCOC3=O)C[C@@H]21` [Compound 3, (2S,3aR,5aS,6R,10aR,10bS)-3a,6,10a-trimethyl-8-oxo-2-(2-oxo-2,5-dihydrofuran-3-yl) dodecahydro-2H-benzofuro[5,4-c]azepine-6-carbonitrile], the midpoint of inhibition in the experiment with human neutrophils [6] (Homo sapiens, Neutrophil, All donors), the IC50, lay at 2.06 µM. This molecule also had an IC50 in the experiment with human neutrophils [6] (Homo sapiens, Neutrophil, Donor 1) of 1.41 µM. For the same molecule, the IC50 in the experiment on human neutrophils [6] (Homo sapiens, Neutrophil, Donor 2) was 3.16 µM. The same molecule returned an IC50 in the experiment with human neutrophils [6] (Homo sapiens, Neutrophil, Donor 3) of 1.62 µM. The “inhibition of neutrophil chemotaxis” value in the experiment on human neutrophils [6] (induced by IL-8 at 2 nM) is “concentration-dependent inhibition”. This molecule gave an IC50 in the experiment with human neutrophils [7] (Homo sapiens, Neutrophil) of 0.798 µM. In addition, in the experiment with human neutrophils [7] (induced by fMLP at 100 nM), the “inhibition of neutrophil chemotaxis” value is given as “concentration-dependent inhibition”. Also, in the experiment with mice [8], the collagen accumulation entry is “notable decrease”, the collagen deposition result was “notable decrease”, the collagen fiber formation result is “notable decrease” and the inflammatory cell infiltration result is “notable decrease”. Also, the inflammatory cytokine expression entry with mice [8] was “notable decrease”. Moreover, the cytokine levels result with mice [9] is given as “dose-dependent reduction in cytokine levels”. The “inflammation and cell counts” value with mice [10] is “reduction in inflammation and cell counts”. In [11], the IL-6 level result is “corresponding decrease”, the IL-8/CXCL8 level entry was “corresponding decrease” and the MCP-1/CCL-2 level result is on record as “corresponding decrease”.
In the experiment with human neutrophils [7], `COC(=O)[C@@H](Cc1ccccc1)NC(=O)[C@H](Cc1c[nH]c2ccccc12)NC(=O)c1ccccc1` [HCH6-1, reference compound] (Bz-Trp-[dF]-OMe) gave an IC50 of 0.452 µM.
For the molecule `CC[C@@H](Nc1c(Nc2cccc(C(=O)N(C)C)c2O)c(=O)c1=O)c1ccc(C)o1` [Navarixin, reference compound], the IC50 in the experiment on human neutrophils [6] (All donors) turned out to be 2.36 µM; with human neutrophils [6] (Donor 1), 1.23 µM; with human neutrophils [6] (Donor 2), 2.69 µM; with human neutrophils [6] (Donor 3), 3.16 µM.
